Test results taken from publication PMC11243320, “Tailoring Fibroblast-Activation Protein Targeting for Theranostics: A Comparative Preclinical Evaluation of the ^68Ga- and ^177Lu-Labeled Monomeric and Dimeric Fibroblast-Activation Protein Inhibitors DOTA.SA.FAPi and DOTAGA.(SA.FAPi)2” (Molecules, 2024).

Tested on: U87MG tumor-bearing mice
Assay: Ex vivo biodistribution of 68Ga-labeled radiotracers in U87MG xenografts
Protocol: U87MG and PC3 tumor-bearing mice: Female athymic BALB/c (6 weeks/16–20 g) and male athymic BALB/c nude mice (6 weeks/20–25 g) were implanted with U87MG or PC3 cells (5 × 10^6/100 µL PBS) into their right shoulder, respectively. The animals were used for biodistribution and PET/SPECT/CT imaging studies (Animal License No: BE98/2021).
Ten pmol (0.08–0.1 MBq) of the radiotracers in 100 µL of NaCl 0.9% were injected intravenously into the tail vein of U87MG and PC3 tumor-bearing mice and biodistribution studies were conducted at 1, 2, and 3 h after injection.
Saturation Binding Studies […]
The radioactivity of the culture medium, the receptor bound , the internalized and the externalized fractions were measured in a γ -counter. The externalized fraction of radioactivity was ex-pressed as the percentage of the total internalized amount.
[68Ga]Ga -DOTA.SA.FAPi and [ 68Ga]Ga -DOTAGA.(SA.FAPi) 2
Ten pmol ( 0.08 –0.1 MBq) of [68Ga]Ga -monomer and [ 68Ga]Ga -dimer in 100 µ L of NaCl 0.9% were injected intravenously into the tail vein of U87MG or PC3 tumor bearing mice . The PC3 tumor-bearing mice were used between the 15th and 17th day after the xenograft implantation and the size was 281 ± 75 mm3. The U87MG tumor-bearing mice were used between the 7th and 9th day after the implantation and the size was 210 ± 34 mm3. Animals were terminally anesthetized by intraperitoneal injection of an overdose of pento-barbital natrium (150 mg/kg; Streuli Pharma SA, Uznach, Switzerland) at 1, 2 and 3 h after injection of the radiotracers. The organs of interest were dissected and weighed, and the radioactivity in the tissue samples […]
was counted in a γ-counter. Biodistribution data are given as the percent of injected activity per gram of tissue (% IA/g) and as means ± SD (n = 4). […]
each radiotracer along with 20 nmol of UAMC1110 (total injected volume: 100 µL) and biodistribution stud-ies were performed 2 h after injection.
[177Lu]Lu-DOTA.SA.FAPi and [177Lu]Lu-DOTAGA.(SA.FAPi)2
Ten pmol (0.06-0.08 MBq) of [177Lu]Lu-monomer and [177Lu]Lu-dimer in 100 µL of NaCl 0.9% were injected intravenously into the tail vein of PC3 tumor-bearing mice. The PC3 tumor-bearing mice were used between the 15th and 17th day after the xenograft implantation and its size was 281 ± 75 mm3. Animals were terminally anesthetized by intraperitoneal injection of an overdose of pentobarbital natrium (150 mg/kg; Streuli Pharma SA, Uznach, Switzerland) 1, 4, 24 and 48 h after the injection of [177Lu]Lu-DOTA.SA.FAPi and at 4, 24, 48, 72 and 96 h after the injection of [177Lu]Lu-DOTAGA.(SA.FAPi)2. The organs of interest were dissected and weighed, and the radioactivity in the tissue samples was counted in a γ-counter. The biodistribution data are given as the percent of injected activity per gram of tissue (% IA/g) and as means ± SD (n = 4). […]
blood pools or if they were necrotic. Both tumor types were “clean” without extended vascularization; there […]
Small Animal Imaging Studies
PET images were obtained after injection of 200 pmol of [68Ga]Ga-DOTA.SA.FAPi and [68Ga]Ga-DOT-AGA.(SA.FAPi)2 (1.0–1.6 MBq/100 μL) into U87MG or PC3 xenografts at 1, 2 and 3 h after injection. Static imaging was acquired for a time period between 10 and 45 min at 1, 2 and 3 h post injection, respectively.
To visualize the extent of FAP-specific tumor uptake, PET/CT blocking studies were performed as described above, and static scans were obtained for 30 min 2 h after the injection of the radiotracer along with the blocking agent (20 nmol).
PET images were corrected for gallium-68 decay and reconstructed with 12 iterations of the maximum a posteriori (MAP) algorithm using a voxel size of 0.25 mm. No correction was applied for attenuation. In addition, a point spread function iterative deconvolution was applied. The images were normalized, filtered using a Gaussian 3D algorithm with a 1.3 mm isotropic kernel and generated using PMOD software. The CT was carried out using step and shoot mode and employed 45 kVp and 400 uA as settings. The images […]

[1] = 2 h blocking (20 nmol UAMC1110)

Biodistribution Blood (1 h): 13.4 ± 0.2 % IA/g
Biodistribution Bone (1 h): 2.1 ± 0.2 % IA/g
Biodistribution Heart (1 h): 4.9 ± 0.6 % IA/g
Biodistribution Intestine (1 h): 2.9 ± 0.5 % IA/g
Biodistribution Kidney (1 h): 3.5 ± 0.7 % IA/g
Biodistribution Liver (1 h): 3.2 ± 0.4 % IA/g
Biodistribution Lung (1 h): 3.2 ± 1.7 % IA/g
Biodistribution Muscle (1 h): 2.6 ± 1.4 % IA/g
Biodistribution Pancreas (1 h): 9.7 ± 2.7 % IA/g
Biodistribution Spleen (1 h): 2.3 ± 0.4 % IA/g
Biodistribution Stomach (1 h): 2.1 ± 0.6 % IA/g
Biodistribution U87MG-Tumor (1 h): 6.5 ± 0.7 % IA/g
Tumor/Blood ratio (1 h): 0.5 ± 0.03
Tumor/Liver ratio (1 h): 2.0 ± 0.3
Tumor/Muscle ratio (1 h): 2.3 ± 0.7
Tumor/Pancreas ratio (1 h): 0.7 ± 0.2
Biodistribution Blood (2 h): 8.5 ± 1.5 % IA/g
Biodistribution Bone (2 h): 1.3 ± 0.2 % IA/g
Biodistribution Heart (2 h): 3.1 ± 0.9 % IA/g
Biodistribution Intestine (2 h): 3.2 ± 0.7 % IA/g
Biodistribution Kidney (2 h): 2.7 ± 0.6 % IA/g
Biodistribution Liver (2 h): 3.1 ± 0.9 % IA/g
Biodistribution Lung (2 h): 2.2 ± 1.0 % IA/g
Biodistribution Muscle (2 h): 2.8 ± 1.1 % IA/g
Biodistribution Pancreas (2 h): 10.5 ± 2.8 % IA/g
Biodistribution Spleen (2 h): 1.6 ± 0.5 % IA/g
Biodistribution Stomach (2 h): 2.0 ± 0.5 % IA/g
Biodistribution U87MG-Tumor (2 h): 5.2 ± 1.4 % IA/g
Tumor/Blood ratio (2 h): 0.7 ± 0.3
Tumor/Liver ratio (2 h): 1.7 ± 0.5
Tumor/Muscle ratio (2 h): 1.9 ± 1.5
Tumor/Pancreas ratio (2 h): 0.5 ± 0.2
Biodistribution Blood [1]: 0.5 ± 0.1 % IA/g
Biodistribution Bone [1]: 1.7 ± 0.6 % IA/g
Biodistribution Heart [1]: 0.7 ± 0.3 % IA/g
Biodistribution Intestine [1]: 1.3 ± 0.1 % IA/g
Biodistribution Kidney [1]: 2.5 ± 0.8 % IA/g
Biodistribution Liver [1]: 0.3 ± 0.03 % IA/g
Biodistribution Lung [1]: 1.1 ± 0.2 % IA/g
Biodistribution Muscle [1]: 1.4 ± 0.8 % IA/g
Biodistribution Pancreas [1]: 0.6 ± 0.4 % IA/g
Biodistribution Spleen [1]: 0.7 ± 0.3 % IA/g
Biodistribution Stomach [1]: 0.7 ± 0.4 % IA/g
Biodistribution U87MG-Tumor [1]: 1.1 ± 0.8 % IA/g
Biodistribution Blood (3 h): 6.2 ± 0.5 % IA/g
Biodistribution Bone (3 h): 3.0 ± 1.6 % IA/g
Biodistribution Heart (3 h): 3.7 ± 0.7 % IA/g
Biodistribution Intestine (3 h): 3.5 ± 0.7 % IA/g
Biodistribution Kidney (3 h): 3.4 ± 0.3 % IA/g
Biodistribution Liver (3 h): 3.9 ± 0.3 % IA/g
Biodistribution Lung (3 h): 3.1 ± 1.0 % IA/g
Biodistribution Muscle (3 h): 3.1 ± 0.9 % IA/g
Biodistribution Pancreas (3 h): 8.7 ± 1.3 % IA/g
Biodistribution Spleen (3 h): 2.8 ± 1.0 % IA/g
Biodistribution Stomach (3 h): 2.2 ± 0.5 % IA/g
Biodistribution U87MG-Tumor (3 h): 4.9 ± 1.0 % IA/g
Tumor/Blood ratio (3 h): 0.8 ± 0.3
Tumor/Liver ratio (3 h): 1.3 ± 0.5
Tumor/Muscle ratio (3 h): 1.7 ± 1.2
Tumor/Pancreas ratio (3 h): 0.6 ± 0.3
Structure (SMILES): N#C[C@@H]1CC(F)(F)CN1C(=O)CNC(=O)c1ccnc2ccc(OCCCCNc3c(NCCNC(=O)CN4CCN(CC(=O)[O-])CCN(CC(=O)[O-])CCN(CC(=O)[O-])CC4)c(=O)c3=O)cc12.[68Ga+3] [[^68Ga]Ga-DOTA.SA.FAPi]
